# Reference: patent US20180036332A1 (Chongqing Institute of Bench-to Bed Bioengineering …, priority 2015, published 2018)
# Experiments:
# [1] = system: primary endothelial cells HUVEC; assay: MTT cell viability assay of primary endothelial cells HUVEC in low glucose and hypoxia environment; assay type: cell-based; conditions: 48 hours
# [2] = design: species or system rats; conditions: rat, in vivo
substance,measurement,setting,value
Nicotinamide adenine dinucleotide phosphate [NADPH],survival rate of HUVEC cells,"[1]; 5 μM NADPH, p<0.05",around 65.3%
same,survival rate of HUVEC cells,"[1]; 10 μM NADPH, p<0.01",around 73.6%
same,survival rate of HUVEC cells,"[1]; 20 μM NADPH, p<0.01",around 70.9%
same,range of myocardial infarction (weight % of ischemic infarct zone in total ischemic myocardial zone),[2],significantly reduces the range of myocardial infarction
